Measurements from ChEMBL document CHEMBL1201862, “PubChem BioAssay data set” (2004).
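Interpolation was linear, between the two tested concentrations surrounding the appropriate level; five concentrations were tested over 48 hours in 96-well plates. GI50: concentration for 50% inhibition of growth.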 Activity calls are given as the source filed them. No stated cut-off is given here; in the data, active = GI50 up to about 1.1 µM and inactive = higher.

Key:
Test in all cases: inhibition of tumour cell growth, NCI panel, 48 h
K562 = tested on: K562
HCT-116 = tested on: HCT-116
SK-MEL-5 = tested on: SK-MEL-5
SNB-75 = tested on: SNB-75
SK-MEL-28 = tested on: SK-MEL-28
NCI-H23 = tested on: NCI-H23
NCI-H460 = tested on: NCI-H460
ACHN = tested on: ACHN
LOX IMVI = tested on: LOX IMVI
SF-268 = tested on: SF-268
SF-295 = tested on: SF-295
Malme-3M = tested on: Malme-3M
IGROV-1 = tested on: IGROV-1
CCRF-CEM = tested on: CCRF-CEM
NCI-H226 = tested on: NCI-H226
MOLT-4 = tested on: MOLT-4
RPMI-8226 = tested on: RPMI-8226
SK-MEL-2 = tested on: SK-MEL-2
OVCAR-5 = tested on: OVCAR-5
HCT-15 = tested on: HCT-15

Compound | GI50 (K562) | GI50 (HCT-116) | GI50 (SK-MEL-5) | GI50 (SNB-75) | GI50 (SK-MEL-28) | GI50 (NCI-H23) | GI50 (NCI-H460) | GI50 (ACHN) | GI50 (LOX IMVI) | GI50 (SF-268) | GI50 (SF-295) | GI50 (Malme-3M) | GI50 (IGROV-1) | GI50 (CCRF-CEM) | GI50 (NCI-H226) | GI50 (MOLT-4) | GI50 (RPMI-8226) | GI50 (SK-MEL-2) | GI50 (OVCAR-5) | GI50 (HCT-15) [µM]
Cc1c(OC(C)C(=O)O)ccc2c(-c3ccccc3)cc(=O)oc12 (centres undefined) | > 100 µM (inactive) | > 100 µM (inactive) | > 100 µM (inactive) | > 100 µM (inactive) | > 100 µM (inactive) | > 100 µM (inactive) | > 100 µM (inactive) | > 100 µM (inactive) | > 100 µM (inactive) | > 100 µM (inactive) | > 100 µM (inactive) | > 100 µM (inactive) | > 100 µM (inactive) | > 100 µM (inactive) | > 100 µM (inactive) | > 100 µM (inactive) | > 100 µM (inactive) | – | – | –
CC(C)C(=O)Cc1ccc2ccccc2n1 | – | 95.5 µM (inactive) | > 100 µM (inactive) | > 100 µM (inactive) | > 100 µM (inactive) | > 100 µM (inactive) | > 100 µM (inactive) | > 100 µM (inactive) | > 100 µM (inactive) | > 100 µM (inactive) | > 100 µM (inactive) | > 100 µM (inactive) | 73.5 µM (inactive) | > 100 µM (inactive) | > 100 µM (inactive) | – | 0.097 µM (active) | > 100 µM (inactive) | > 100 µM (inactive) | > 100
O=C1C(Cl)C2(CC(/C=C/c3cccs3)=NN2c2cccc(S(=O)(=O)O)c2)N1c1nc2ccccc2s1 (centres undefined) | 35.6 µM (inactive) | > 100 µM (inactive) | 16.9 µM (inactive) | 49.9 µM (inactive) | > 100 µM (inactive) | 27.8 µM (inactive) | 31.1 µM (inactive) | 58.3 µM (inactive) | 15.1 µM (inactive) | > 100 µM (inactive) | – | > 100 µM (inactive) | 21.1 µM (inactive) | 20.1 µM (inactive) | 27.9 µM (inactive) | 31.5 µM (inactive) | 47 µM (inactive) | > 100 µM (inactive) | > 100 µM (inactive) | 75.9
NCC(Cl)C(O)c1c[nH]c(N)n1 (centres undefined) | 2.38 µM (inactive) | 0.392 µM (active) | 7.33 µM (inactive) | 1.84 µM (inactive) | 3.61 µM (inactive) | 1.49 µM (inactive) | 2.14 µM (inactive) | – | 1.24 µM (inactive) | 1.38 µM (inactive) | 4.31 µM (inactive) | 1.43 µM (inactive) | 0.245 µM (active) | 1.58 µM (inactive) | 2.15 µM (inactive) | 0.53 µM (active) | 0.237 µM (active) | 3.56 µM (inactive) | 2.01 µM (inactive) | 3.48
O=C1/C(=C/C=C/c2ccccc2)CCC1CNc1ccccc1 (centres undefined) | 2.71 µM (inactive) | 17.9 µM (inactive) | 67 µM (inactive) | > 100 µM (inactive) | 44.6 µM (inactive) | 27.7 µM (inactive) | > 88.7 µM (inactive) | 76.9 µM (inactive) | 18.6 µM (inactive) | 36.7 µM (inactive) | > 100 µM (inactive) | 58.6 µM (inactive) | 23.4 µM (inactive) | 3.48 µM (inactive) | > 100 µM (inactive) | 20.3 µM (inactive) | 1.59 µM (inactive) | – | > 65.8 µM (inactive) | 18.4
O=C(/C(=C/c1ccc(Cl)cc1)c1ccccc1)c1ccccc1 | 27.4 µM (inactive) | 13.6 µM (inactive) | – | 22.8 µM (inactive) | 16.9 µM (inactive) | 17.5 µM (inactive) | 17.7 µM (inactive) | 19.7 µM (inactive) | 15.4 µM (inactive) | 18.2 µM (inactive) | 18.8 µM (inactive) | 17 µM (inactive) | 18.7 µM (inactive) | 32.4 µM (inactive) | 17.1 µM (inactive) | 17.8 µM (inactive) | 18.5 µM (inactive) | 20.4 µM (inactive) | 22.6 µM (inactive) | 15.4
CCOC(=O)c1sc2nc(SC)nc(N3CCCCC3)c2c1N | > 100 µM (inactive) | > 100 µM (inactive) | > 100 µM (inactive) | > 100 µM (inactive) | > 100 µM (inactive) | > 100 µM (inactive) | > 100 µM (inactive) | > 100 µM (inactive) | > 100 µM (inactive) | > 100 µM (inactive) | > 100 µM (inactive) | > 100 µM (inactive) | > 100 µM (inactive) | – | > 100 µM (inactive) | > 100 µM (inactive) | > 100 µM (inactive) | > 100 µM (inactive) | > 100 µM (inactive) | > 100
O=C(NC(Cc1ccc(Cl)cc1)C(=O)O)c1ccc(I)cc1 (centres undefined) | > 100 µM (inactive) | > 100 µM (inactive) | > 100 µM (inactive) | 86.3 µM (inactive) | > 100 µM (inactive) | > 100 µM (inactive) | > 100 µM (inactive) | – | > 100 µM (inactive) | > 100 µM (inactive) | > 100 µM (inactive) | > 100 µM (inactive) | > 100 µM (inactive) | > 100 µM (inactive) | > 100 µM (inactive) | > 75.9 µM (inactive) | 84.7 µM (inactive) | > 100 µM (inactive) | > 100 µM (inactive) | > 100
CC(C)CCNc1ncnc2[nH]ncc12 | 81.8 µM (inactive) | > 100 µM (inactive) | 36.6 µM (inactive) | > 100 µM (inactive) | > 100 µM (inactive) | > 100 µM (inactive) | > 100 µM (inactive) | 68.9 µM (inactive) | 91.2 µM (inactive) | > 100 µM (inactive) | 52.1 µM (inactive) | > 100 µM (inactive) | > 100 µM (inactive) | – | 60.3 µM (inactive) | 65.6 µM (inactive) | 34 µM (inactive) | > 100 µM (inactive) | 49.4 µM (inactive) | > 100
Cn1c(=O)c(Cl)c(N=[N+]=[N-])c2ccccc21 | 47.1 µM (inactive) | 93.8 µM (inactive) | 65.5 µM (inactive) | 25.8 µM (inactive) | > 100 µM (inactive) | > 100 µM (inactive) | > 100 µM (inactive) | 85.7 µM (inactive) | 55.7 µM (inactive) | > 100 µM (inactive) | > 100 µM (inactive) | 68.9 µM (inactive) | > 100 µM (inactive) | 55.7 µM (inactive) | 39.8 µM (inactive) | 23.3 µM (inactive) | – | > 100 µM (inactive) | > 100 µM (inactive) | > 100
C=CCNC(=O)N(CCC)CCCC(NC(C)=O)C(=O)NCc1ccccc1 (centres undefined) | > 100 µM (inactive) | – | > 100 µM (inactive) | > 100 µM (inactive) | > 100 µM (inactive) | > 100 µM (inactive) | > 100 µM (inactive) | > 100 µM (inactive) | > 100 µM (inactive) | > 100 µM (inactive) | > 100 µM (inactive) | > 100 µM (inactive) | > 100 µM (inactive) | > 100 µM (inactive) | 79.1 µM (inactive) | > 100 µM (inactive) | > 100 µM (inactive) | > 100 µM (inactive) | > 100 µM (inactive) | > 100
C=C(C)C1Cc2c(cc(O)c3c(=O)c4ccccc4n(C)c23)O1 (centres undefined) | – | 69.8 µM (inactive) | 27.7 µM (inactive) | 14.9 µM (inactive) | > 100 µM (inactive) | 32.2 µM (inactive) | 43.5 µM (inactive) | 40.9 µM (inactive) | 10.7 µM (inactive) | 21.5 µM (inactive) | 7.45 µM (inactive) | 64.4 µM (inactive) | – | 15.4 µM (inactive) | 37.1 µM (inactive) | > 100 µM (inactive) | > 100 µM (inactive) | 34.8 µM (inactive) | > 100 µM (inactive) | > 100
COc1ccc(/C(C#N)=C(/N)SCc2ccccc2Cl)cc1 | 18.5 µM (inactive) | 18.8 µM (inactive) | – | 23.2 µM (inactive) | 17.9 µM (inactive) | 16.8 µM (inactive) | – | > 10 µM (inactive) | 15.2 µM (inactive) | 16.4 µM (inactive) | 17.1 µM (inactive) | 17.5 µM (inactive) | 29.2 µM (inactive) | 27.9 µM (inactive) | 16.4 µM (inactive) | 19.1 µM (inactive) | 22.8 µM (inactive) | 16.5 µM (inactive) | 18.2 µM (inactive) | –
COc1cc(C2c3cc4c(cc3[C@@H](Nc3cccc(CO)c3)C3COC(=O)[C@H]23)OCO4)cc(OC)c1O (some centres undefined) | 0.178 µM (active) | 0.624 µM (active) | 0.56 µM (active) | 0.94 µM (active) | 2.24 µM (inactive) | 0.375 µM (active) | < 0.01 µM (active) | – | 0.438 µM (active) | 0.923 µM (active) | 0.218 µM (active) | 1.56 µM (inactive) | 1.62 µM (inactive) | 0.078 µM (active) | 0.308 µM (active) | 0.0448 µM (active) | 0.244 µM (active) | 2.74 µM (inactive) | 2.04 µM (inactive) | 0.875
COC1=CC(=O)[C@@]2(C)C(C)[C@H](c3ccccc3)[C@H]2C1=O (some centres undefined) | > 100 µM (inactive) | – | > 100 µM (inactive) | > 100 µM (inactive) | > 100 µM (inactive) | > 100 µM (inactive) | > 100 µM (inactive) | > 100 µM (inactive) | > 100 µM (inactive) | > 100 µM (inactive) | > 100 µM (inactive) | > 100 µM (inactive) | > 100 µM (inactive) | > 100 µM (inactive) | > 100 µM (inactive) | > 100 µM (inactive) | > 100 µM (inactive) | > 100 µM (inactive) | > 100 µM (inactive) | > 100
